# Test results as given in patent publication US20040121965A1, “Method of treating resistant tumors” (Wyeth Holdings Corporation, priority 2002, published 2004).
# Where two headings read alike, the source gives them in different places.
# Experiments:
# MCF7 = assay: Cell survival assay (SRB), MCF7; format: cell-based; conditions: Homo sapiens, MCF7, 72 h
# Description: (§1) 2.2. Cell Survival Assay: Standard Pharmacological Test Procedure. […] Compounds are incubated with cells for 3 days.
# MDA-MB-435 = assay: Cell survival assay (SRB), MDA-MB-435; format: cell-based; conditions: Homo sapiens, 72 h; MDA-MB-435, breast; 3 days, SRB staining
# Description: as §1
# SKBR3 = assay: Cell survival assay (SRB), SKBR3; format: cell-based; conditions: Homo sapiens, SK-BR-3, 72 h; SKBR3, breast; 3 days, SRB staining
# Description: as §1
# CX-1 = assay: Cell survival assay (SRB), CX-1; format: cell-based; conditions: Homo sapiens, 72 h; CX-1, colon; 3 days, SRB staining
# Description: as §1
# A549 = assay: Cell survival assay (SRB), A549; format: cell-based; conditions: Homo sapiens
# Source text: Cells lines with previously known mechanisms of resistance. […] Res. 8: 207-218,1996); KB-3-1 (parental derived from an epidermoid carcinoma), KB-8.5, KB-V1 (Akiyama S-I, Fojo A, Hanover J A, Pastan I, Gottesman M M. Isolation and genetic characterization of human KB cell lines resistant to multiple drugs. Somatic Cell Mol. Gen., 11: 117-126,1985; Shen D-W, Cardarelli C, Hwang J, Cornwell M, Richert N, Ishii S, Pastan I, Gottesman MM. […] J. Biol. Chem., 261: 7762-7770, 1986); and HL-60 (parental derived from human leukemia) and HL60/AR (McGrath T., Center M. S. Adriamycin resistance in HL60 cells in the absence of detectable P-glycoprotein. Biochem. Res. Commun., 145:1171-1176,1987); A549 and A549.EpoB40 (He L., Yang C.-P.H., Horwitz S. B. Mutations in p-tubulin map to domains involved in regulation of microtubule stability in epothilone-resistant cell lines. Molecular Cancer Therapeutics. 1: 3-10, 2001). HCT-15 human colon carcinoma and DLD-1 human colon carcinoma are obtained from American Tissue Culture Collection. The MX-1W carcinoma is a Wyeth variant orginally obtained as MX-1 breast carcinoma from the National Cancer Institute. Cell lines selected for resistance to Representative Example 129. […]
# 2.2. […] Absorbance is read on a Victor V multi-label plate reader (Perkin Elmer, Gaithersburg, Md.).
# DU145 = assay: Cell survival assay (SRB), DU145; format: cell-based; conditions: Homo sapiens, DU-145, 72 h; DU145, prostate; 3 days, SRB staining
# Description: as §1
# MAP-associated tubulin = assay: Polymerization of MAP-associated tubulin, cell-free spectrophotometric assay; format: biochemical
# cellular microtubules = assay: Cellular microtubules by immunofluorescence microscopy; format: cell-based
# [1] = Mitotic arrest and apoptosis; format: cell-based; conditions: at 24 hr; followed by apoptosis (48 hr)
# Description: d) induces mitotic arrest (3-10 nM at 24 hr) followed by apoptosis (48 hr),
# KB-V1 (MDR1++) = assay: Cell survival assay (SRB), KB-V1 (MDR1++); conditions: for IC50: Homo sapiens
# NCI-H838 = assay: Cell survival assay (SRB), NCI-H838; format: cell-based; conditions: Homo sapiens, 72 h; NCI-H838, NSCLC; 3 days, SRB staining
# Description: as §1
# HCT-15 tumor = assay: Growth of tumors in nude mice, HCT-15 xenograft; format: in vivo; conditions: paclitaxel 60 mg/kg IV, days 1,5,9
# Source text: 2.4. Growth of Tumors in Nude Mice.
smiles,measurement,setting,value
"CN[C@H](C(=O)N[C@H](C(=O)N(C)[C@H](/C=C(\C)C(=O)O)C(C)C)C(C)(C)C)C(C)(C)c1ccccc1 [Example 129, N,β,β-trimethyl-L-phenylalanyl-N^1-[(1S,2E)-3-carboxy-1-isopropylbut-2-enyl]-N^1,3-dimethyl-L-valinamide]",IC50,MCF7,7.3 ± 2.3 nM
same,IC50,MDA-MB-435,0.5 nM
same,IC50,SKBR3,2.3 nM
same,IC50,CX-1,2.3 nM
same,IC50,"A549; A549, 72 h",1.1 ± 0.5 nM
same,IC50,DU145,2 nM
same,polymerization of MAP-associated tubulin,MAP-associated tubulin,inhibitor of polymerization
same,effect on cellular microtubules,cellular microtubules,depolymerizes cellular microtubules
same,concentration that induces mitotic arrest,[1],3 to 10 nM
same,"RR, relative resistance",KB-V1 (MDR1++),81
same,Ratio KBV1/KB,KB-V1 (MDR1++),80.6
same,resistance of KB-V1 cells,KB-V1 (MDR1++),81 fold
same,IC50,KB-V1 (MDR1++); 72 h,57 nM
same,IC50,"KB-V1 (MDR1++); 72 h, read-out: IC50 + 5.0 uM MDR-1 inhibitor",1.3 nM
same,IC50,"KB-V1 (MDR1++); read-out: KB-V1 (MDR1++) IC50, nM (N)",77.4 nM
"CC(=O)O[C@H]1C(=O)[C@@]2(C)[C@H]([C@H](OC(=O)c3ccccc3)[C@]3(O)C[C@H](OC(=O)[C@H](O)[C@@H](NC(=O)c4ccccc4)c4ccccc4)C(C)=C1C3(C)C)[C@]1(OC(C)=O)CO[C@@H]1C[C@@H]2O [paclitaxel, reference compound]",IC50,"A549; 72 h, A549, NSCLC, 3 days, SRB staining, read-out: IC50",8.8 ± 3.6 nM
same,IC50,NCI-H838,6.3 ± 0.6 nM
same,% T/C on day 9,HCT-15 tumor,114%
same,% T/C on day 13,HCT-15 tumor,106%
same,% T/C on day 17,HCT-15 tumor,123%
same,% T/C on day 21,HCT-15 tumor,110%
same,IC50,"KB-V1 (MDR1++); 72 h, KB-V1, 3 days, SRB, vehicle (DMSO), no MDR-1 inhibitor, mean of two experiments",> 3000 nM
same,IC50,"KB-V1 (MDR1++); 72 h, read-out: IC50 + 5.0 uM MDR-1 inhibitor, KB-V1, 3 days, SRB, + 5.0 uM MDR-1 inhibitor (heptanenitrile), mean of two experiments",15 nM
same,IC50,"KB-V1 (MDR1++); read-out: KB-V1 (MDR1++) IC50, nM (N), KB-V1, high MDR1 expression, Table 3",5480 ± 2780 nM
